The source of these data is ChEMBL document CHEMBL1909046, “DrugMatrix in vitro pharmacology data”.

In assay [1] the target is T1, Alpha-2A adrenergic receptor (Homo sapiens, UniProt P08913). Further: in other assays of this panel Not Active means under 50% inhibition at 10 µM.
T1 sequence (P08913 whole entry): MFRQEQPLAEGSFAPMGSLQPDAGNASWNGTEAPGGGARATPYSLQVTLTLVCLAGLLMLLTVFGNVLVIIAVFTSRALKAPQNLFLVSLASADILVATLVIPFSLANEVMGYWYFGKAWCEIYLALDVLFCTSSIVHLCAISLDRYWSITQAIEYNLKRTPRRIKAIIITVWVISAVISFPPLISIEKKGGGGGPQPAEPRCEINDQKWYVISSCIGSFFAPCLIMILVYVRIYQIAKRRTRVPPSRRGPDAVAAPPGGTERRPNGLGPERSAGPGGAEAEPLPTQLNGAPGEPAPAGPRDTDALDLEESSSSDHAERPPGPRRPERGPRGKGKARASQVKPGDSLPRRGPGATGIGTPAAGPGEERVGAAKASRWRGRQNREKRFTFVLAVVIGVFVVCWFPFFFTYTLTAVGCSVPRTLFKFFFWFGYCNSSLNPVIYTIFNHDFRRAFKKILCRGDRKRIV
The class given is cell membranes, Sf9, Membrane. The conditions noted are these: sf9.

Assay [2] addresses T2, Neuropeptide Y receptor type 2 (Homo sapiens, UniProt P49146).
T2 sequence (P49146 whole entry): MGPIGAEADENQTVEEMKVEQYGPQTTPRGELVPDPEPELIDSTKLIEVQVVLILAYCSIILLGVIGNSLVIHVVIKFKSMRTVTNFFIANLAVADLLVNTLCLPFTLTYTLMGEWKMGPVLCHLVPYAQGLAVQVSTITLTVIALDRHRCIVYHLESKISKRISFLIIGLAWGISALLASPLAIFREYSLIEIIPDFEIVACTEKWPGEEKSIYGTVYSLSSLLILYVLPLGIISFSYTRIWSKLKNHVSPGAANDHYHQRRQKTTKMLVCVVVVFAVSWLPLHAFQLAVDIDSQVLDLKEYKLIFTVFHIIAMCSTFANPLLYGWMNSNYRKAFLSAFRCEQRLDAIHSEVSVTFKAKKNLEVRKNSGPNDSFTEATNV
The format is cell membranes, Membrane. The conditions noted are these: kan-ts.

Assay [3] deals with Sigma non-opioid intracellular receptor 1 (Homo sapiens, UniProt Q99720). Nature of the assay: DRUGMATRIX: Sigma1 radioligand binding (ligand: [3H] Haloperidol). The class given is cell membranes, Jurkat, Membrane. The conditions noted are these: Not Active = under 50% inhibition at 10 µM.
The nature of assay [4]: DRUGMATRIX: Calcium Channel Type L, Phenylalkylamine radioligand binding (ligand: [3H] (-)-Desmethoxyverapamil (D-888)). The format is cell membranes, Rattus norvegicus, Wistar, Brain, Membrane. The conditions noted are these: Not Active = under 50% inhibition at 10 µM.
Assay [5] has as its target T3, C-X-C chemokine receptor type 1 (Homo sapiens, UniProt P25024). Further: in other assays of this panel Not Active means under 50% inhibition at 10 µM.
T3 sequence (P25024 whole entry): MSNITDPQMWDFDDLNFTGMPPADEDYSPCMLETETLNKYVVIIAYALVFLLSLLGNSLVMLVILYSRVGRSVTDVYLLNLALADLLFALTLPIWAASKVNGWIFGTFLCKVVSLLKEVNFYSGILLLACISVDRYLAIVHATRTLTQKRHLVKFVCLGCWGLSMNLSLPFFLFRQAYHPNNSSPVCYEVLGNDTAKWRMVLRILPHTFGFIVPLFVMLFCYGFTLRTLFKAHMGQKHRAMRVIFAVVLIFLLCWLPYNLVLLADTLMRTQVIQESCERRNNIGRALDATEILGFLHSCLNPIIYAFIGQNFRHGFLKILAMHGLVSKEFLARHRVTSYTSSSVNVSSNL

The target of a further assay is T4, Adenosine receptor A1 (Homo sapiens, UniProt P30542).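 Further: radioligand binding assay at the adenosine A1 receptor, with DPCPX serving as the labelled ligand; in other assays of this panel Not Active means under 50% inhibition at 10 µM.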
T4 sequence (P30542 whole entry): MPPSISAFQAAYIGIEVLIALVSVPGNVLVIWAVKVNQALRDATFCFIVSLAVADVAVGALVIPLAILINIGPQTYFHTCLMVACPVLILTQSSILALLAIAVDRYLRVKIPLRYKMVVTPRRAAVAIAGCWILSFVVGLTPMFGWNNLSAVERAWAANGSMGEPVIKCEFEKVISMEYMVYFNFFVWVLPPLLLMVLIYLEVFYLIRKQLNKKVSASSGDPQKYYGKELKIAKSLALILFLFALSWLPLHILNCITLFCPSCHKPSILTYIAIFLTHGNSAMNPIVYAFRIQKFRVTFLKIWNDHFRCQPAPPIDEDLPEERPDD
The class given is cell membranes, CHO, Membrane. The conditions noted are these: cho.

The target of assay [6] is Receptor tyrosine-protein kinase erbB-2 (Homo sapiens, UniProt P04626). In words: biochemical. The conditions noted are these: insect cells. The class given is cell-based, Insect cells.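 Further: inhibition of HER2 kinase enzyme activity, measured with Poly(Glu:Tyr) as the phosphorylation substrate; in other assays of this panel Not Active means under 50% inhibition at 10 µM.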
Another assay has as its target T5, Endothelin-1 receptor (Homo sapiens, UniProt P25101). Further: in other assays of this panel Not Active means under 50% inhibition at 10 µM.
T5 sequence (P25101 whole entry): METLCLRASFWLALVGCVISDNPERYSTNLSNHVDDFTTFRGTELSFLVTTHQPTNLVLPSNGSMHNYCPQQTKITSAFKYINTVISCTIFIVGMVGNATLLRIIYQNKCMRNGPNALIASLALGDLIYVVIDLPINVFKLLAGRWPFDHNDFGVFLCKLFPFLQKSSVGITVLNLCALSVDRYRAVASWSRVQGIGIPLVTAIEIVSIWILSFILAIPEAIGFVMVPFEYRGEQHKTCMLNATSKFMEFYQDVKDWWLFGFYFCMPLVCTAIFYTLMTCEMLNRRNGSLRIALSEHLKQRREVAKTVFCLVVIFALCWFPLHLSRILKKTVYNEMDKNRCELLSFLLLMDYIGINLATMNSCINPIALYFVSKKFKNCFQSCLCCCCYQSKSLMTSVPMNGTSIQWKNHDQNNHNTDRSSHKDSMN
The class given is cell membranes, Membrane. The conditions noted are these: cho-k1.

The target in assay [7] is T6, Alpha-1A adrenergic receptor (Rattus norvegicus, UniProt P43140).
T6 sequence (P43140 whole entry): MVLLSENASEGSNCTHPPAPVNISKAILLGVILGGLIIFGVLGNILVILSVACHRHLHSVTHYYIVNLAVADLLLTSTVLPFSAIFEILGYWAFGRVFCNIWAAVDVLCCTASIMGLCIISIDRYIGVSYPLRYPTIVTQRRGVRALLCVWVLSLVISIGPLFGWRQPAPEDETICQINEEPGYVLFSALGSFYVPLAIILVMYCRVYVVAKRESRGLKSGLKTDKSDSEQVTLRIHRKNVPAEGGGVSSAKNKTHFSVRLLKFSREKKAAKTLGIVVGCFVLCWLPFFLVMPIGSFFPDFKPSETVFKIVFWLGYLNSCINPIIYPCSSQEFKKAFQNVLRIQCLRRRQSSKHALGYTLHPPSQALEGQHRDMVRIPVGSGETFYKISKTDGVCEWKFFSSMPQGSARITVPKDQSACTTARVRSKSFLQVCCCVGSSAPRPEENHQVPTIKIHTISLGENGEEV
Nature of the assay: DRUGMATRIX: Alpha-1A adrenergic receptor radioligand binding (ligand: prazosin). The conditions noted are these: Not Active = under 50% inhibition at 10 µM. The format is cell membranes, Wistar, Submaxillary gland, Membrane.

Sequence of Sigma non-opioid intracellular receptor 1 (Q99720 whole entry): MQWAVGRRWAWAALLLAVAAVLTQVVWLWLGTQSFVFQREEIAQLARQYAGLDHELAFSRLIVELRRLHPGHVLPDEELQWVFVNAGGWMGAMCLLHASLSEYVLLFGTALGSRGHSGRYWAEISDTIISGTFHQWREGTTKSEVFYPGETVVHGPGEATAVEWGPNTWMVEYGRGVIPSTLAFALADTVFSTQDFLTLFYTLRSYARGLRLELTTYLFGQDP
Sequence of Receptor tyrosine-protein kinase erbB-2 (P04626 whole entry): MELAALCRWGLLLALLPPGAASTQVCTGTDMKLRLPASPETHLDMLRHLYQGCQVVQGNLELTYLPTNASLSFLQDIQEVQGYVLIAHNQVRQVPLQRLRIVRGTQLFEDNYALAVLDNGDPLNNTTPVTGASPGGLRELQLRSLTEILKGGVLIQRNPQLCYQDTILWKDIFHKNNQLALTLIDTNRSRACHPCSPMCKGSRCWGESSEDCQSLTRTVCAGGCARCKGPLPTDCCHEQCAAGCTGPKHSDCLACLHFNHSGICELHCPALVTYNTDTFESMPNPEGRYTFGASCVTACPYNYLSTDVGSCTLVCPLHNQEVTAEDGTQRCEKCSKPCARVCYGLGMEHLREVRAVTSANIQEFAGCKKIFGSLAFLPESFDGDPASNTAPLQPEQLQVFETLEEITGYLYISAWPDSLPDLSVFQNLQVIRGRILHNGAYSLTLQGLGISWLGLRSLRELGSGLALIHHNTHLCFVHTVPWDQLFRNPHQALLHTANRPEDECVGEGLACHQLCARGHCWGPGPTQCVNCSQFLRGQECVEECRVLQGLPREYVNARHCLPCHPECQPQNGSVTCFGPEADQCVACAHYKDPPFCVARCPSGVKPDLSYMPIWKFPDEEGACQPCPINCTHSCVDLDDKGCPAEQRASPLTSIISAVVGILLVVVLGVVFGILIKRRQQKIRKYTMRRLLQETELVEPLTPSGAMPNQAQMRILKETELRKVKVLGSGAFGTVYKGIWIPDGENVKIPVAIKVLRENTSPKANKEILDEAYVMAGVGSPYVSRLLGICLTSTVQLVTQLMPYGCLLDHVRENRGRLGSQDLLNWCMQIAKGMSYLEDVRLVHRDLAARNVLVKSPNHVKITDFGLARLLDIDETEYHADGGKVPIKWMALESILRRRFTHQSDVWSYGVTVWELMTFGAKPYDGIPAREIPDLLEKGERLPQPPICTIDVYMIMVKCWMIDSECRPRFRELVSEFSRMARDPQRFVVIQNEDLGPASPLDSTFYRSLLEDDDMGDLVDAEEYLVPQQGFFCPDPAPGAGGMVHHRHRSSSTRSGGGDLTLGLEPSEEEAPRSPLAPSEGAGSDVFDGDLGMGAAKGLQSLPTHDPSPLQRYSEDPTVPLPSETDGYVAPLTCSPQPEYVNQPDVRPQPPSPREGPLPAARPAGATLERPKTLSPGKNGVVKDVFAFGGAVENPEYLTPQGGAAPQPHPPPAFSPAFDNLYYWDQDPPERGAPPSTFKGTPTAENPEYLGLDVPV

In general, IC50 refers to the midpoint of a concentration-inhibition curve. For orientation: Ki means the dissociation constant of the complex between target and ligand, obtained from inhibition or displacement. Turning to `Nc1ccc(S(N)(=O)=O)cc1` [SULFANILAMIDE], the IC50 result (in assay [1]; in [2]; in [3] (jurkat); in assay [4]; in assay [5]; against Adenosine receptor A1) was “Not Active” throughout. In addition, the IC50 result (in assay [6]; against Endothelin-1 receptor; in assay [7]) was “Not Active” throughout. Moreover, the inhibitory constant (Ki) result in [4] is “Not Active”.
As for `Nc1ccc(S(=O)(=O)Nc2ccnn2-c2ccccc2)cc1` [SULFAPHENAZOLE], the IC50 entry (in [1]; in assay [2]; in assay [3] (jurkat); in assay [4]; in assay [5]; against Adenosine receptor A1) was “Not Active” in each case. In addition, the half-inhibitory concentration (IC50) entry (in assay [6]; against Endothelin-1 receptor; in assay [7]) was “Not Active” each time. Besides, the Ki entry in assay [4] is listed as “Not Active”.
For `C=CC[C@@H]1/C=C(\C)C[C@H](C)C[C@H](OC)[C@H]2O[C@@](O)(C(=O)C(=O)N3CCCC[C@H]3C(=O)O[C@H](/C(C)=C/[C@@H]3CC[C@@H](O)[C@H](OC)C3)[C@H](C)[C@@H](O)CC1=O)[C@H](C)C[C@@H]2OC` [TACROLIMUS ANHYDROUS], the IC50 result (in assay [1]; in [2]; in assay [3] (jurkat); in assay [4]; in assay [5]; at Adenosine receptor A1) was “Not Active” in each case. The IC50 result (in [6]; against Endothelin-1 receptor; in assay [7]) was “Not Active” in each case. The Ki entry in [4] is recorded as “Not Active”.
In the case of `CC1CN(c2cc3c(cc2F)c(=O)c(C(=O)O)cn3-c2ccc(F)cc2F)CCN1` (stereo unspecified) [TEMAFLOXACIN], the IC50 result (in assay [1]; in [2]; in assay [3] (jurkat); in [4]; in [5]; on Adenosine receptor A1) was “Not Active” in each case. In addition, the IC50 result (in assay [6]; at Endothelin-1 receptor; in [7]) was “Not Active” in each case. Also, the inhibition constant (Ki) result in [4] is recorded as “Not Active”.
For the compound `CC(C)(C)NCC(O)c1cc(O)cc(O)c1` (stereo unspecified) [TERBUTALINE], the IC50 entry (in assay [1]; in assay [2]; in assay [3] (jurkat); in assay [4]; in assay [5]; on Adenosine receptor A1) was “Not Active” in each case. The IC50 entry (in assay [6]; at Endothelin-1 receptor; in [7]) was “Not Active” throughout. In addition, in [4], the Ki result was “Not Active”.
In the case of `CN(C)[C@@H]1C(O)=C(C(N)=O)C(=O)[C@@]2(O)C(O)=C3C(=O)c4c(O)cccc4[C@@](C)(O)[C@H]3C[C@@H]12` [TETRACYCLINE], the IC50 entry (in [1]; in [2]; in [3] (jurkat); in assay [4]; in [5]; against Adenosine receptor A1) was “Not Active” in each case. The half-inhibitory concentration (IC50) entry (in assay [6]; against Endothelin-1 receptor; in assay [7]) was “Not Active” each time. Moreover, the Ki result in assay [4] is on record as “Not Active”.
As to `c1ccc2[nH]c(-c3cscn3)nc2c1` [THIABENDAZOLE], the IC50 entry (in assay [1]; in assay [2]; in [3] (jurkat); in [4]; in [5]; against Adenosine receptor A1) was “Not Active” throughout. In addition, the IC50 entry (in [6]; on Endothelin-1 receptor; in assay [7]) was “Not Active” throughout. Moreover, the Ki entry in assay [4] is recorded as “Not Active”.
In the case of `Cc1ccc(C(=O)C(C)CN2CCCCC2)cc1` (stereo unspecified) [TOLPERISONE], the IC50 entry was “Not Active” in assay [1]; “Not Active” in assay [2]; 13 nM in assay [3] (read-out: IC50); “Not Active” in assay [4]; “Not Active” in assay [5]; “Not Active” against Adenosine receptor A1. The IC50 result (in assay [6]; against Endothelin-1 receptor; in assay [7]) was “Not Active” in each case. Besides, the Ki was 5.59 nM in assay [3] (read-out: Ki) and “Not Active” in assay [4].
In the case of `NC(CO)(CO)CO` [TROMETHAMINE], the IC50 entry (in assay [1]; in assay [2]; in assay [3] (jurkat); in [4]; in assay [5]; against Adenosine receptor A1) was “Not Active” in each case. For the same compound, the IC50 entry (in assay [6]; on Endothelin-1 receptor; in assay [7]) was “Not Active” each time. In assay [4], the Ki result is “Not Active”.
Take `CN1[C@@H]2CC[C@H]1C[C@@H](OC(=O)c1c[nH]c3ccccc13)C2` [TROPISETRON]: the IC50 result (in [1]; in assay [2]; in [3] (jurkat); in assay [4]; in [5]; on Adenosine receptor A1) was “Not Active” each time. Also, the IC50 entry (in assay [6]; against Endothelin-1 receptor; in assay [7]) was “Not Active” each time. In addition, the Ki entry in assay [4] was “Not Active”.
